According to patent US20250115595A1, “INHIBITORS OF HYPOXIA-INDUCIBLE FACTORS” (The Johns Hopkins University, priority 2021, published 2025):

Test system: tumor immune microenvironment
Experiment: Flow cytometry of immune cell populations in Hepa1-6 tumors
Format: in vivo, mouse
Settings: 200-mm3 tumors, within 8 days
Description: To analyze the mechanism by which 32-134D increased the response to anti-Pd1 therapy, tumor-bearing mice were treated with 32-134D or vehicle, and immune cell populations in well-established 200-mm^3 tumors were analyzed by flow cytometry.
Hepa1-6 tumors were digested with collagenase (1 mg/ml) at 37° C. for 30 minutes and the resulting single cell suspension was passed through a 70-μm cell strainer and washed twice with cold PBS. Cells were resuspended in FC buffer for subsequent flow cytometry analysis. […]

`Brc1ccc2c(-c3csc(-c4c[nH]c5c(Br)cccc45)n3)c[nH]c2c1` [Compound 32-134D, 4-(6-bromo-1H-indol-3-yl)-2-(7-bromo-1H-indol-3-yl)thiazole] was tested, and the “percentage of Cd8+Ifng+ activated CTLs and Nk1.1+Cd3−Cd314+ activated NK cells” value was “significantly increased” and the “percentage of Cd11b+F4/80+ tumor-associated macrophages and Cd11b+Ly6g+Ly6c− myeloid-derived suppressor cells” value was “decrease”.
